target: Beta-secretase 1 (Homo sapiens, UniProt P56817); assay: Binding affinity for human brain memapsin 2
Sequence (P56817 whole entry): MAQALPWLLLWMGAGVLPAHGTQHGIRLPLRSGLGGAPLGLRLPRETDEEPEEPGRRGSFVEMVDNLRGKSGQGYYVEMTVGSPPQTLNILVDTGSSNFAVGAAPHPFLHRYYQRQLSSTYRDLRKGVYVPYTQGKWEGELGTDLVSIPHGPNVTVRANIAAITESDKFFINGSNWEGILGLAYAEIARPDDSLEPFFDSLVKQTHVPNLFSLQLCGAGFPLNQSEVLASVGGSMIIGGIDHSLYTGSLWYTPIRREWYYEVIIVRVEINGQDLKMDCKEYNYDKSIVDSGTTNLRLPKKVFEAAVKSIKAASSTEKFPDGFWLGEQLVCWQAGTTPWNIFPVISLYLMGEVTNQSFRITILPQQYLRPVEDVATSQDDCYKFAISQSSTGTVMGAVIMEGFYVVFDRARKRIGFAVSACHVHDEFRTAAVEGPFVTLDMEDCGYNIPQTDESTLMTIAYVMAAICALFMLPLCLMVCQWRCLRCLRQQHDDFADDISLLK

First: CC(C)C[C@H](NC(=O)[C@H](CS(C)(=O)=O)NC(=O)OC(C)(C)C)[C@@H](O)C[C@@H](C)C(=O)N[C@H](C(=O)NCc1ccccc1)C(C)C
Second: CC(C)C[C@H](NC(=O)[C@H](CS(C)(=O)=O)NC(=O)[C@@H](NC(=O)OC(C)(C)C)C(C)C)[C@@H](O)C[C@@H](C)C(=O)N[C@H](C(=O)NCc1ccccc1)C(C)C
The Ki of the first is 120-fold higher: 1.13 µM for the first, 0.0094 µM for the second. The second binds more tightly here.

Going from `CSCC[C@H](NC(=O)[C@@H](NC(=O)OC(C)(C)C)C(C)C)C(=O)N[C@@H](CC(C)C)[C@@H](O)C[C@@H](C)C(=O)N[C@H](C(=O)NCc1ccccc1)C(C)C` to `CSC[C@H](NC(=O)[C@@H](NC(=O)OC(C)(C)C)C(C)C)C(=O)N[C@@H](CC(C)C)[C@@H](O)C[C@@H](C)C(=O)N[C@H](C(=O)NCc1ccccc1)C(C)C`, the Ki rises from 0.0025 µM to 0.0501 µM (20-fold). The first binds more tightly here.

Compared with `CC(C)C[C@H](NC(=O)[C@H](CC(N)=O)NC(=O)C(N)C(C)C)[C@@H](O)C[C@@H](C)C(=O)N[C@@H](C)C(=O)N[C@H](CCC(=O)O)C(=O)NC(Cc1ccccc1)C(=O)O` (some centres undefined), `CC(C)C[C@H](NC(=O)[C@H](CC(N)=O)NC(=O)[C@@H](NC(=O)OC(C)(C)C)C(C)C)[C@@H](O)C[C@@H](C)C(=O)N[C@@H](C)C(=O)NCc1ccccc1` is 1.7-fold higher in Ki: 0.036 µM for the first, 0.0614 µM for the second.

Going from `CSCC[C@H](NC(=O)OC(C)(C)C)C(=O)N[C@@H](CC(C)C)[C@@H](O)C[C@@H](C)C(=O)N[C@H](C(=O)NCc1ccccc1)C(C)C` to `CC(C)C[C@H](NC(=O)[C@H](CC(N)=O)NC(=O)[C@@H](NC(=O)OC(C)(C)C)C(C)C)[C@@H](O)C[C@@H](C)C(=O)N[C@H](C(=O)NCc1ccccc1)C(C)C`, the Ki falls from 5.81 µM to 0.0059 µM (980-fold). The second binds more tightly here.

Molecule `CC(C)C[C@H](NC(=O)[C@H](CC(N)=O)NC(=O)OC(C)(C)C)[C@@H](O)C[C@@H](C)C(=O)N[C@@H](C)C(=O)NCc1ccccc1` has a Ki of 22.4 µM.

Source: ChEMBL document CHEMBL1134775, “Structure-based design: potent inhibitors of human brain memapsin 2 (beta-secretase)” (J Med Chem, 2001)
